The target of the test is cardiac troponin C (cNTnC) (Homo sapiens, UniProt P63316, C35S/C84S). As to the kind of experiment: 2D 1H, […]-HSQC NMR titration, […] fit. Format: binding.

The results in this text go back to paper PMC4456024 (Chemical biology & drug design, 2014).

The term Kd denotes the concentration at which binding is half-saturated. Read a high Kd as a looser complex.

In turn, `Cc1ccc(C)c(N2CCN(c3ccncc3N)CC2)c1` [compound 6, 4-(4-(2,5-dimethylphenyl)-1-piperazinyl)-3-pyridinamine] gave a Kd of 721 ± 16 µM.
